Measured values published in PMC10384639, “Increased In Vivo Exposure of N-(4-Hydroxyphenyl) Retinamide (4-HPR) to Achieve Plasma Concentrations Effective against Dengue Virus” (Pharmaceutics, 2023).
“And” between values parts separate entries of the source, which are not always exact repeats. Identical values can stand only once. Like-named read-outs stand apart in the source and are kept apart here.

Key:
[1] = Single-dose IV PK of 4-HPR in mice with and without ABT; format: in vivo, male C57Bl/6 mice; conditions: for half-life / AUC(0-inf) / clearance / Vd: plasma; for half-life: read-out: Apparent t1/2 (converted); for AUC(0-inf): read-out: Plasma AUC0-inf; for Vd: read-out: Plasma VSS
Experimental: C57Bl/6 mice (22.6–28.7 g) having access to food and water ad libitum throughout the pre- and post-dose sampling period were dosed with 4-HPR either orally by gavage (2–10 mL/kg, depending upon formulation) or IV by bolus injection into the lateral tail vein (50 μL/animal, 2 mL/kg), and blood samples were collected up to 49 h post-dose by either submandibular bleed or terminal cardiac puncture (n = 3–5 mice per timepoint for each formulation) with a maximum of four samples from each mouse. Blood samples were mixed with heparin, potassium fluoride and complete protease inhibitor cocktail (Roche Diagnostics, Mannheim, Germany), centrifuged and supernatant plasma was removed and stored at −80 °C until analysis by LC-MS. Specifics of formulations used in PK experiments are detailed in Supplementary Table S1.
For in vivo CYP inhibition experiments, repeat oral doses of ABT (50 mg/kg b.i.d commencing 4 h before 4-HPR administration, 5 mL/kg by gavage) were administered according to a regimen shown to maintain ongoing CYP inhibition. Blood samples were collected from ABT-treated mice for up to 72 h after dosing 4-HPR.
For 4-HPR quantification, proteins were precipitated from plasma samples using acetonitrile (2-fold volume ratio) prior to analysis using a Waters Acquity Ultra-High Performance Liquid Chromatography (UHPLC) system coupled to a Waters Xevo TQ MS system (Waters Corporation, Milford, MA, USA). Chromatographic separation was performed using a C8 reverse phase column (Ascentis Express RP C8, 50 × 2.1 mm, 2.7 μm, Merck KGaA, Darmstadt, Germany) and a 3 μL injection volume. Gradient elution (methanol-water gradient with 0.05% formic acid) was performed at a flow rate of 0.4 mL/min, cycle time of 4 min, with detection by positive electrospray ionisation in multiple-reaction monitoring mode. Then, 4-HPR standards (10,000–0.5 ng/mL) were prepared in blank plasma, with diazepam as an internal standard (10 μL of 5 μg/mL in 50% acetonitrile/water per sample). For 4-HPR, the retention time was 2.97 min, m/z transition 392.23 > 161.15, cone voltage 30 V and CID 20 V.
The dose administered to each mouse was calculated on the basis of the pre-dose body weight, the volume of formulation administered, and the 4-HPR concentration in the formulation. The plasma concentration versus time profile was defined by the average plasma concentration at each sample time, and PK parameters were calculated using non-compartmental methods (PKSolver Version 2.0) using the average dose administered to the dosing group.
To illustrate the differences in 4-HPR plasma exposure profiles that would be expected in mice upon repeat-dose administration (b.i.d, 10 h/14 h at 20 mg/kg) of the different formulations, profiles were simulated using a simple compartmental PK approach. Initially, a linear 2-compartment model was fitted (PKSolver, Version 2.0) to the mean plasma concentration-time profile obtained after bolus IV administration of 4-HPR. The parameter estimates thus obtained (i.e., V1, k10, k12 and k21—see Supplementary Table S2) were considered to define the systemic disposition of 4-HPR and were fixed during simulation of the oral profiles. Oral profiles were simulated using a differential equation-based compartmental model scripted in Berkeley Madonna (version 8.3.1.8). Systemic disposition parameters were fixed as described above, under the assumption that the post-absorption distribution and elimination of 4-HPR was independent of the formulation administered. Bioavailability was fixed at the value determined by non-compartmental analysis, and the first order rate constant for compound absorption was manually varied until the simulated concentration-time profile was in close agreement with the experimental concentration-time data obtained after single-dose administration of pre-dispersed lipid formulation. […] These were obtained by setting the bioavailability (F) to the value determined for each formulation by non-compartmental analysis.

[2] = Equilibrium solubility of 4-HPR in excipients and lipid-based formulations; format: physicochemical
Experimental: Excipients were weighed directly into glass vials at the indicated concentrations, mixed thoroughly, then transferred to Eppendorf tubes and loaded with an excess of 4-HPR. Formulations were then heated to 37 °C, vortexed extensively (initially every hour) and agitated with a stirrer and incubated at 37 °C in a shaking incubator. Periodically (every 1–3 days), undissolved drug was removed from the formulation by centrifugation (20 min at 2100× g, 37 °C) and 20 mg of supernatant was transferred to new tubes for quantification by UHPLC (stored at −20 °C), with the remaining formulation vortexed and agitated vigorously incubated at 37 °C in a shaking incubator until the next sampling. Samples were dissolved in 1 mL 1:1 chloroform:methanol, then diluted 1:100 in acetonitrile.
In this case, the UHPLC assay used a Shimadzu Nexera X2 UHPLC system (Shimadzu Corporation, Kyoto, Japan), with chromatographic separation on a C18 reverse phase column (Kinetex 2.6 μm C18 100 Å, LC Column 50 × 2.1 mm, Phenomenex Inc., Torrance, CA, USA) at 30 °C, with samples stored at 10 °C in the autosampler until injection (3 μL volume). Isocratic elution (79.95% acetonitrile, 19.95% H2O, 0.1% formic acid) was performed at a flow rate of 0.3 mL/min, with absorbance measured by the photodiode array detector. Then, 4-HPR standards (50–0.521 μg/mL) were created by successive serial dilution of a 50 μg/mL stock standard in acetonitrile, with area under curve at absorbance of 365 nm used to generate a standard curve using LabSolutions software V.5.82.

[3] = Plasma protein binding by Rapid Equilibrium Dialysis; format: in vitro ADME; conditions: 37 °C, corrected for dilution; for % Bound / Fraction Unbound 4-HPR: RED 24 h; for fraction unbound at 24 h, 2000 ng/mL: pH 7.4, RED 24 h, read-out: % Bound
Experimental: (§1) Protein binding of 4-HPR was assessed in human (pooled, Innovative Research Inc., Novi, MI, USA) and mouse (collected in-house from male C57BL6 mice) plasma via Rapid Equilibrium Dialysis (RED) using pre-saturated dialysis units as previously. Briefly, RED inserts were pre-saturated overnight with 400 ng/mL 4-HPR in PBS, after which solutions were removed and discarded, and 300 µL aliquots of diluted human or mouse plasma (10% v/v in pH 7.4 PBS) containing 4-HPR (2000 ng/mL) were added to the donor chamber of the RED inserts (n = 4/matrix) and dialysed against 500 µL of PBS (containing 40 ng/mL 4-HPR). During the 24 h dialysis period, the RED system was sealed with a gas impermeable film, and the plate was maintained at 37 °C under ambient atmosphere in an orbital plate shaker set at 800 rpm (ThermoMixer C; Eppendorf, Hamburg, Germany). At the end of the dialysis period, aliquots were taken from each donor and dialysate chamber to obtain post-dialysis measures of the total and unbound 4-HPR concentrations, respectively. The measured pH of pre- and post-dialysis donor matrix and dialysate buffer was within pH 7.4 ± 0.1.
Donor and dialysate samples were processed and analysed using a matrix matching approach, and all samples were stored frozen at −80 °C until analysis by LC-MS. Compound binding was assessed on the basis of the measured concentrations in dialysate and donor samples at the end of the dialysis period, assuming that the system was at steady state by 24 h. As the binding assay was performed using diluted plasma, data were corrected for the dilution factor to give a binding value for neat plasma via an established approach which accounts for the shift in equilibria that occurs with protein dilution.

[4] = Stability in diluted plasma matrix; format: in vitro ADME; conditions: diluted human plasma (10% v/v in pH 7.4 PBS)
Experimental: as §1

[5] = Stability in diluted plasma matrix; format: in vitro ADME; conditions: diluted mouse plasma (10% v/v in pH 7.4 PBS)
[6] = system: DENV; conditions: cited from earlier work
[7] = system: DENV; design: method as in PMID 24903662; conditions: b.i.d 20 mg/kg 4-HPR, lethal ADE DENV infection; cited from earlier work
[8] = system: ZIKV; design: method as in PMID 33439253; conditions: read-out: In vitro EC50; cited from earlier work
[9] = system: DENV2; design: method as in PMID 25313218; conditions: b.i.d 180 mg/kg, AG129 mouse viremia model; cited from earlier work
[10] = male, C57Bl/6, mouse, in vivo, iv
[11] = male, C57Bl/6, mouse, iv, 2 mg/kg, single-dose 2 mg/kg IV, +ABT (50 mg/kg, b.i.d)
[12] = male, C57Bl/6, mouse, iv, 2 mg/kg, single-dose 2 mg/kg IV, −ABT

In the case of `CC1=C(/C=C/C(C)=C/C=C/C(C)=C/C(=O)Nc2ccc(O)cc2)C(C)(C)CCC1` [4-HPR, N-(4-hydroxyphenyl) retinamide], the “Fold increase in exposure with ABT treatment after IV dosage” value ([1]; IV 2 mg/kg, +ABT versus −ABT) is reported as 0.2 fold, the “V1 (2-compartment model estimate)” value ([1]; fit to IV data, −ABT) is reported as 0.233 L/kg and the “k21 (2-compartment model estimate)” value ([1]; fit to IV data, −ABT) is reported as 0.561 h⁻¹. The “k10 (2-compartment model estimate)” value [1, 10] was 1.20 h⁻¹, the “k12 (2-compartment model estimate)” value [1, 10] was 5.42 h⁻¹ and the half-life [1, 11] was 12.1 h. For the same compound, the AUC(0-inf) [1, 11] was 24.5 µM·h, the clearance ([1]; male, C57Bl/6, mouse, iv, 2 mg/kg, single-dose 2 mg/kg IV, +ABT (50 mg/kg, b.i.d), read-out: Plasma CL) was 3.6 mL/min/kg and the Vd [1, 11] was 3.2 L/kg. The half-life ([1]; male, C57Bl/6, mouse, iv, 2 mg/kg, single-dose 2 mg/kg IV, −ABT, 10% DMSO, 90% PEG400) was 8.1 h, the AUC(0-inf) [1, 12] was 21.6 µM·h and the clearance ([1]; male, C57Bl/6, mouse, iv, 2 mg/kg, single-dose 2 mg/kg IV, −ABT, read-out: Plasma CL) was 4.1 mL/min/kg. The Vd [1, 12] was 1.9 L/kg, the clearance ([1]; male, C57Bl/6, mouse, iv, observed under both conditions (±ABT), read-out: In vivo systemic clearance) was 4.4 mL/min/kg and the “4-HPR Concentration (equilibrium solubility)” value (“4-HPR Concentration” below) ([2]; in Capmul-MCM-EP, 37 °C) was 34 mg/g and 34 ± 4.3 mg/g. The “4-HPR Concentration” value ([2]; in Capryol 90, 37 °C) was 48 ± 6.0 mg/g, the “4-HPR Concentration” value ([2]; in Captex 355 EP/NF, 37 °C) was 14 ± 0.1 mg/g and the “4-HPR Concentration” value ([2]; in Corn oil, 37 °C) was 3.9 ± 0.2 mg/g. The “4-HPR Concentration” value ([2]; in Cremophor EL, 37 °C) was 10 ± 0.2 mg/g, the “4-HPR Concentration” value ([2]; in Ethanol, 37 °C) was 113 mg/g and 113 ± 1.3 mg/g and the “4-HPR Concentration” value ([2]; in Gelucire 44/14, 37 °C) was 6.0 ± 0.2 mg/g. The “4-HPR Concentration” value ([2]; in Kolliphor RH 40, 37 °C) was 5.5 ± 0.6 mg/g, the “4-HPR Concentration” value ([2]; in Labrasol, 37 °C) was 7.3 ± 0.1 mg/g and the “4-HPR Concentration” value ([2]; in Lauroglycol 90, 37 °C) was 39 mg/g and 39 ± 1.4 mg/g. The “4-HPR Concentration” value ([2]; in Maisine 35-1, 37 °C) was 21 ± 7.6 mg/g, the “4-HPR Concentration” value ([2]; in Maisine CC, 37 °C) was 26 ± 1.6 mg/g and the “4-HPR Concentration” value ([2]; in PEG400, 37 °C) was 82 ± 0.7 mg/g. The “4-HPR Concentration” value ([2]; in Polysorbate 80, 37 °C) was 24 ± 4.9 mg/g, the “4-HPR Concentration” value ([2]; in Soybean Oil, 37 °C) was 2.7 ± 0.1 mg/g and the “4-HPR Concentration” value ([2]; in Transcutol, 37 °C) was 217 ± 8.8 mg/g. For the same compound, the “4-HPR Concentration” value ([2]; in Tween 85, 37 °C) was 71 mg/g and 71 ± 9.1 mg/g, the “% Bound” value ([3]; human plasma) was over 99.95% and the “Fraction Unbound 4-HPR” value ([3]; human plasma) was under 0.0005. The fraction unbound at 24 h, 2000 ng/mL ([3]; male, C57BL6, mouse plasma diluted to 10% v/v in PBS) was under 0.0005, the “% Bound” value ([3]; mouse plasma) was over 99.95% and the “Fraction Unbound 4-HPR” value ([3]; mouse plasma) was under 0.0005. For the same compound, the fraction unbound at 24 h, 2000 ng/mL ([3]; pooled human plasma diluted to 10% v/v in PBS) was under 0.0005, the “Stability in diluted plasma” value [4] was “no evidence of any degradation” and the “Stability in diluted plasma” value [5] was “no evidence of any degradation”. For the same compound, the EC50 ([6]; DENV, read-out: In vitro EC50) was 1 to 2 µM, the EC50 ([6]; all four infectious DENV strains in vitro, read-out: EC50) was about 1 µM and the “Protection of infected mice” value [7] was 70%. For the same compound, the EC50 [8] was 1 to 2 µM and the “Reduction of DENV2 viremia” value [9] was over 50 fold.
